Data on 1 molecule can be found in ChEMBL document CHEMBL5500363, “Discovery of novel ocotillol derivatives modulating glucocorticoid receptor/NF-κB signaling for the treatment of sepsis” (Eur J Med Chem, 2024).

In assay [1] the test system is Mus musculus. Put plainly: Anti-septic activity in LPS-induced sepsis BALB/c mouse assessed as reduction in lung tissue damage at 7.5 to 30 mg/kg administered via gavage for 3 days followed by LPS treatment for 6 hrs by H and E staining based analysis. Type of assay: functional, organism-based. Particulars: dose 7.5-30 mg/kg, time 78.0 hrs.
In assay [2] the test system is Mus musculus. The assay is described as follows: Anti-septic activity in LPS-induced sepsis BALB/c mouse assessed as reduction in serum TNF-alpha level at 7.5 to 30 mg/kg administered via gavage for 3 days followed by LPS treatment for 6 hrs by ELISA. Type of assay: functional, organism-based. The conditions noted are these: dose 7.5-30 mg/kg, time 78.0 hrs. A general note: ELISA stands for enzyme-linked immunosorbent assay.

Assay [3] relates to RAW264.7. The assay is described as follows: Anti-inflammatory activity in mouse RAW264.7 cells assessed as inhibition of LPS-induced TNF-alpha production pretreated for 2 hrs followed by LPS stimulation for 24 hrs by ELISA. Type of assay: functional, cell-based. Particulars: dose 5-20 µM, time 26.0 hrs.
The subject of assay [4] is Mus musculus. Put plainly: Downregulation of p65 phosphorylation in liver of LPS-induced sepsis BALB/c mouse model at 7.5 to 30 mg/kg administered via gavage for 3 days followed by LPS treatment for 6 hrs by Western blot analysis. The conditions noted are these: dose 7.5-30 mg/kg, time 78.0 hrs. Type of assay: functional, organism-based. Background: Immunoblotting shows a protein as a band on a membrane.

For assay [5], the system named is RAW264.7. The assay is described as follows: Inhibition of LPS-induced NO production in mouse RAW264.7 cells at 10 uM pretreated for 2 hrs followed by LPS stimulation for 24 hrs by Griess assay relative to control. Type of assay: functional. Particulars: time 26 hrs.
Assay [6] relates to RAW264.7. Put plainly: Anti-inflammatory activity in mouse RAW264.7 cells assessed as inhibition of LPS-induced IL-6 production pretreated for 2 hrs followed by LPS stimulation for 24 hrs by ELISA. Type of assay: functional, cell-based. The conditions noted are these: dose 5-20 µM.
Assay [7] deals with RAW264.7. Put plainly: Upregulation of glucocorticoid receptor expression in LPS-treated mouse RAW264.7 cells pretreated for 2 hrs followed by LPS stimulation for 24 hrs by Western blot analysis. Type of assay: functional, cell-based. The conditions noted are these: time 26.0 hrs.
For assay [8], the system named is RAW264.7. Put plainly: Inhibition of LPS-induced NO production in mouse RAW264.7 cells pretreated for 2 hrs followed by LPS stimulation for 24 hrs by Griess assay. Type of assay: functional, cell-based.
Assay [9] has as its system RAW264.7. The assay is described as follows: Anti-inflammatory activity in mouse RAW264.7 cells assessed as decrease in LPS-induced I-kappaB-alpha phosphorylation at 20 uM pretreated for 2 hrs followed by LPS stimulation for 24 hrs by Western blot analysis. Type of assay: functional, cell-based. The conditions noted are these: time 26.0 hrs.
In assay [10] the test system is Mus musculus. The assay is described as follows: Anti-septic activity in LPS-induced sepsis BALB/c mouse assessed as body weight recovery at 7.5 to 30 mg/kg administered via gavage for 3 days followed by LPS treatment for 6 hrs. Type of assay: functional, organism-based. Particulars: dose 7.5-30 mg/kg, time 78.0 hrs.
Assay [11] relates to Mus musculus. Put plainly: Anti-septic activity in LPS-induced sepsis BALB/c mouse assessed as reduction in serum CRP level at 7.5 to 30 mg/kg administered via gavage for 3 days followed by LPS treatment for 6 hrs. Type of assay: functional, organism-based. Particulars: dose 7.5-30 mg/kg, time 78.0 hrs.
In assay [12] the test system is RAW264.7. Put plainly: Effect on KLF9 mRNA expression in mouse RAW264.7 cells by qPCR analysis. Type of assay: functional, cell-based.
In assay [13] the test system is RAW264.7. The assay is described as follows: Upregulation of glucocorticoid receptor mRNA expression in LPS-treated mouse RAW264.7 cells incubated for 24 hrs by qRT-PCR analysis. Type of assay: functional, cell-based. (In general: Quantitative PCR measures a nucleic acid by following its amplification.)
Assay [14] relates to RAW264.7. Put plainly: Anti-inflammatory activity in mouse RAW264.7 cells assessed as decrease in LPS-induced p65 phosphorylation at 20 uM pretreated for 2 hrs followed by LPS stimulation for 24 hrs by Western blot analysis. Type of assay: functional, cell-based. Particulars: time 26.0 hrs.
Assay [15] concerns the target T1, Glucocorticoid receptor (Mus musculus) (UniProt P06537).
T1 sequence (whole entry): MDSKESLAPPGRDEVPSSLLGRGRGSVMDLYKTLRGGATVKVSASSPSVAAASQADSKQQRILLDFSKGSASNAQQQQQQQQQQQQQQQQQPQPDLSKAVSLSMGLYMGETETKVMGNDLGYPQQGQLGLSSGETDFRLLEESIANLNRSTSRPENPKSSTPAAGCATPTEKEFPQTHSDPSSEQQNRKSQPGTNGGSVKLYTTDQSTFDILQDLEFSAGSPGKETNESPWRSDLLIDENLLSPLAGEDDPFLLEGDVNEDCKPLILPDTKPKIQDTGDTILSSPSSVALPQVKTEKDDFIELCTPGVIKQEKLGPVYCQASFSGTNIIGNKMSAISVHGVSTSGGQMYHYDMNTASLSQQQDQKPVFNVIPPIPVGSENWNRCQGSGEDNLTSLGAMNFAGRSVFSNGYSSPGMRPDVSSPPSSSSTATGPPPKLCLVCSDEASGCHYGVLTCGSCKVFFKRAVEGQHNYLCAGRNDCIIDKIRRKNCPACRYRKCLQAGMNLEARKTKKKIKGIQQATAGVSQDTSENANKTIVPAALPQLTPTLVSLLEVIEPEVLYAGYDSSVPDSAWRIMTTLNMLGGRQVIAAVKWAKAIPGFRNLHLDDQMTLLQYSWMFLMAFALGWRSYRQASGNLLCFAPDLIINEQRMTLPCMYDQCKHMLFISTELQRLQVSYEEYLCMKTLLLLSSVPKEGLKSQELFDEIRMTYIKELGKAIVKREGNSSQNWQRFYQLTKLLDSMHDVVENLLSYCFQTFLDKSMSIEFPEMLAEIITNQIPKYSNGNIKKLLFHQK
The assay is described as follows: Binding affinity to glucocorticoid receptor in mouse RAW264.7 cells assessed as thermal stability by measuring protein degradation at 47 degreeC at 10 to 40 uM pretreated for 24 hrs followed by heat exposure for 3 mins and subsequently incubated at room temperature for 3 mins by CETSA. Particulars: dose 10-40 µM, time 1446.0 min. Type of assay: cell-based.

For assay [16], the system named is Mus musculus. The assay is described as follows: Anti-septic activity in LPS-induced sepsis BALB/c mouse assessed as reduction in pathological change in kidney at 7.5 to 30 mg/kg administered via gavage for 3 days followed by LPS treatment for 6 hrs by H and E staining based analysis. Type of assay: functional, organism-based. Particulars: dose 7.5-30 mg/kg, time 78.0 hrs.

Assay [17] has as its system Mus musculus. The assay is described as follows: Anti-septic activity in LPS-induced sepsis BALB/c mouse assessed as reduction in hepatic hemorrhage at 7.5 to 30 mg/kg administered via gavage for 3 days followed by LPS treatment for 6 hrs by H and E staining based analysis. The conditions noted are these: dose 7.5-30 mg/kg, time 78.0 hrs. Type of assay: functional, organism-based.

Assay [18] addresses T1, Glucocorticoid receptor (Mus musculus). Put plainly: Binding affinity to glucocorticoid receptor in mouse RAW264.7 cells assessed as increase in thermal stability at 47 degreeC pretreated for 24 hrs followed by heat exposure for 3 mins and subsequently incubated at room temperature for 3 mins by CETSA. Type of assay: cell-based. The conditions noted are these: dose 2.5-40 µM, time 1446.0 min.

Assay [19] deals with RAW264.7. The assay is described as follows: Downregulation of glucocorticoid receptor in mouse RAW264.7 cells at 20 uM incubated for 24 hrs by Western blot analysis. Type of assay: functional, cell-based.
The target of assay [20] is T1, Glucocorticoid receptor (Mus musculus). The assay is described as follows: Binding affinity to glucocorticoid receptor in mouse RAW264.7 cells assessed as increase in thermal stability at 47 to 51 degreeC at 40 uM pretreated for 24 hrs followed by heat exposure for 3 mins and subsequently incubated at room temperature for 3 mins by CETSA. Type of assay: cell-based. The conditions noted are these: time 1446.0 min.

For assay [21], the system named is Mus musculus. Put plainly: Upregulation of glucocorticoid receptor expression in liver of LPS-induced sepsis BALB/c mouse model at 7.5 to 30 mg/kg administered via gavage for 3 days followed by LPS treatment for 6 hrs by immunofluorescence analysis. Type of assay: functional, organism-based. The conditions noted are these: dose 7.5-30 mg/kg, time 78.0 hrs.
The test system of assay [22] is Mus musculus. Put plainly: Upregulation of glucocorticoid receptor expression in liver of LPS-induced sepsis BALB/c mouse model at 7.5 to 30 mg/kg administered via gavage for 3 days followed by LPS treatment for 6 hrs by Western blot analysis. Type of assay: functional, organism-based. Particulars: dose 7.5-30 mg/kg, time 78.0 hrs.
For assay [23], the system named is RAW264.7. Put plainly: Inhibition of LPS-induced NO production in mouse RAW264.7 cells at 5 uM pretreated for 2 hrs followed by LPS stimulation for 24 hrs by Griess assay relative to control. The conditions noted are these: time 26 hrs. Type of assay: functional.

Calls of active or inactive are those of the source. The calls are words filed in the database; no cut-off is given here.

What is called inhibition is the change of the read-out against control, counted positive when it falls. For orientation: IC50 means the midpoint of a concentration-inhibition curve.

For the molecule `CC(C)(C)OC(=O)CCC(=O)Nc1nc2c(s1)C[C@]1(C)[C@H]3C[C@@H](O)[C@@H]4C([C@]5(C)CC[C@@H](C(C)(C)O)O5)CC[C@@]4(C)[C@]3(C)CC[C@H]1C2(C)C` (stereo partly drawn), the outcome in assay [1], in assay [2], in assay [4], in assay [7], in [9] and in [10] was Active. Besides, the outcome in [11], in assay [13], in assay [14], in [15], in [16] and in assay [17] was Active. The result in assay [20], in assay [21] and in assay [22] was Active. For the same molecule, the inhibition result in [3] and in [6] was “Dose-Dependent Effect” in each case. Further, the inhibition at 10 µM in assay [5] was determined as 52.6%. Further, in assay [8], the IC50 was 3.38 µM. For the same molecule, the outcome in assay [12] and in assay [19] was inactive. For the same molecule, in [18], the Activity result was “Dose-Dependent Effect”. Also, the inhibition at 5 µM in assay [23] came out at 30.3%.
